logP data for two compounds are collected here from patent US8841332B2, “Fungicidal N-(2-phenoxyethyl)carboxamide derivatives and their aza, thia and sila analogues” (Bayer Intellectual Property GmbH, priority 2008, dated 2014).

The nature of this data set: logP determination by HPLC on a reversed-phase column (C 18), EEC Directive 79/831 Annex V.A8. Format: physicochemical. The following applies: HPLC reversed-phase C 18, 40° C., 0.1% aqueous formic acid and acetonitrile, gradient 10% to 90% acetonitrile. Here is the method: In the table 1, the logP values were determined in accordance with EEC Directive 79/831 Annex V.A8 by HPLC (High Performance Liquid Chromatography) on a reversed-phase column (C 18), using the method described below: Temperature: 40° C.; Mobile phases: 0.1% aqueous formic acid and acetonitrile; linear gradient from 10% acetonitrile to 90% acetonitrile. Calibration was carried out using unbranched alkan-2-ones (comprising 3 to 16 carbon atoms) with known logP values (determination of the logP values by the retention times using linear interpolation between two successive alkanones).

As usually defined, the logP is the decadic logarithm of the partition coefficient of the neutral form, usually between octanol and water. A higher logP goes with higher lipophilicity. On to `CC(COc1ccc(Cl)cc1Cl)N(C(=O)c1cn(C)nc1I)C1CC1` (centres unmarked) [Example 19], for which the logP came to 3.78.
For `Cn1cc(C(=O)N(CCOc2c(Cl)cc(Cl)cc2Cl)C2CCCC2)c(C(F)F)n1` [Example 24], the lipophilicity (logP) came to 4.72.
